Key:
[1] = molecular target: T1, Multidrug and toxin extrusion protein 1 (Mus musculus, UniProt Q8K0H1); test: Inhibition of mouse Mate1 transfected in HEK293 cells assessed as uptake of [14C]-TEA preincubated for 15 mins by liquid scintillation counting analysis; type: cell-based
T1 sequence (Q8K0H1 whole entry): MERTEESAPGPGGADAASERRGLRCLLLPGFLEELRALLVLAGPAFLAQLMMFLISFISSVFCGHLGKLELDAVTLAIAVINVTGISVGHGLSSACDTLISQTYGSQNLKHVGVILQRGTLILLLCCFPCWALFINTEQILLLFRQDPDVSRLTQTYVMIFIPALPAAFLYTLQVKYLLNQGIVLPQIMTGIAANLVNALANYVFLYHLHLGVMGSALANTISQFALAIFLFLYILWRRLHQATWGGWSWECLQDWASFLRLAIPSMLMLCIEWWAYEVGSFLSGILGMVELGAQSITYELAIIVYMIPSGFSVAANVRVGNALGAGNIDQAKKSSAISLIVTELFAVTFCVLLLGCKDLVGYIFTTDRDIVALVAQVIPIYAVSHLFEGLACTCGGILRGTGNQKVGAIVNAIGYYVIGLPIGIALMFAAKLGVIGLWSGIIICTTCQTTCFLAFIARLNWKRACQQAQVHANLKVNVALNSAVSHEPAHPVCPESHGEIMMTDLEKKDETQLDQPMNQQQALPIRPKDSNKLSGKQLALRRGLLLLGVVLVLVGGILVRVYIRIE

Plasma [2] = test: Unbound plasma concentration in ddY mouse at 5 mg/kg; type: ADME, organism-based; design: dose 5 mg/kg; details: in vivo
Plasma [3] = test: Plasma concentration in ddY mouse at 5 mg/kg; type: ADME, organism-based; design: dose 5 mg/kg; details: in vivo
[4] = molecular target: T2, Solute carrier family 22 member 1 (Mus musculus, UniProt O08966); test: Inhibition of mouse Oct1 transfected in HEK293 cells assessed as uptake of [14C]-TEA preincubated for 15 mins by liquid scintillation counting analysis; type: cell-based
T2 sequence (O08966 whole entry): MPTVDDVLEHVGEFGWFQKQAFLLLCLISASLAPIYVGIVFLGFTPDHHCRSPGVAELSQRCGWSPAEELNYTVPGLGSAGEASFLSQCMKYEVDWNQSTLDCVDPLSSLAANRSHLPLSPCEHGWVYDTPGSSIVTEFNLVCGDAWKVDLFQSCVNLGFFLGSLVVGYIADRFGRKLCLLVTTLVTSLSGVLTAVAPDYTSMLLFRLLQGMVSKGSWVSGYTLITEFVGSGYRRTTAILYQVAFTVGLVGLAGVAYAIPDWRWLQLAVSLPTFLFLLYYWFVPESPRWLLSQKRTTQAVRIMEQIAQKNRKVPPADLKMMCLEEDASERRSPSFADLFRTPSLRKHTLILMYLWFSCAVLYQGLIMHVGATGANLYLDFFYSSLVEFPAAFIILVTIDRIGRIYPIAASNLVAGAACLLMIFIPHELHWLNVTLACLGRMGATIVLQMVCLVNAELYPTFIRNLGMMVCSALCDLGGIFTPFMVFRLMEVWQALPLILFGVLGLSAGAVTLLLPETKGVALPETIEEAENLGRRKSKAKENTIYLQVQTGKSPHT

SMILES: CCc1nc(N)nc(N)c1-c1ccc(Cl)cc1 [PYRIMETHAMINE]
- Ki [1]: 145 nM
- Cp(f) (Plasma [2]): 0.3 µM
- concentration (Plasma [3]): 3.7 µM
- Ki [4]: 3600 nM
